Structures can show the parent of a compound that is named as a salt. Bounds are passed on as bounds.

For one test, the target named is MCH receptor (Homo sapiens, UniProt Q99705). Briefly: High throughput functional screening FLIPR/FDSS6000: inhibition of MCH-evoked intracellular Ca2+ changes. It is filed as cell-based. The following applies: antagonist activity, 50 nM of MCH, FLIPR or FDSS; read-out: IC50. The essentials:
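Cells expressing constitutively active MCH receptor, loaded with 4 μM Fluo4-AM for 1 h at 37 °C, were pretreated 3 min with compound, then challenged with MCH (50 nM for antagonist testing). MCH-evoked [Ca2+]i transients followed by FLIPR or FDSS (ex 488/em 530 nm) over 290 s.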
As for `Cc1cccc(Oc2ncccc2C(=O)N[C@H]2CC[C@@H](Nc3nc(N(C)C)c4ccccc4n3)CC2)c1` [Example 898, N-(cis-4-{[4-(Dimethylamino)quinazolin-2-yl]amino}cyclohexyl)-2-(3-methylphenoxy)-nicotinamide trifluoroacetate], the IC50 amounted to 3.3 nM.

The test is the same for the next values; noted with them: class by percent of control at 10^-7 M or IC50.
Consider `CN(C)c1nc(N[C@H]2CC[C@@H](NC(=S)Nc3ccc(Cl)cc3C(F)(F)F)CC2)nc2ccccc12` [compound 314, N-[4-chloro-2-(trifluoromethyl)phenyl]-N′-(cis-4-{[4-(dimethylamino)quinazolin-2-yl]amino}cyclohexyl)thiourea], for which the class is given as 1 (Class 1: The value of percent of control at 10^−7 M was less than 40% or the value of IC50 was less than 50 nM.).
Take `CN(C)c1nc(N[C@H]2CC[C@@H](NC(=S)NCc3cccc4ccccc34)CC2)nc2ccccc12` [compound 289, N-(cis-4-{[4-(dimethylamino)quinazolin-2-yl]amino}cyclohexyl)-N′-(1-naphthylmethyl)thiourea]: the class is on record as 1 (Class 1: The value of percent of control at 10^−7 M was less than 40% or the value of IC50 was less than 50 nM.).
For the molecule `CN(C)c1nc(N[C@H]2CC[C@@H](CNC(=O)Nc3ccc(Br)cc3C(F)(F)F)CC2)nc2ccccc12` [compound 541, N-[4-bromo-2-(trifluoromethyl)phenyl]-N′-[(cis-4-{[4-(dimethylamino)quinazolin-2-yl]amino}cyclohexyl)methyl]urea], the class is 2 (Class 2: The value of percent of control at 10^−7 M was from 40% to 60% or the value of IC50 was from 50 nM to 200 nM.).
Same read-out and setting: in the case of `CN(C)c1nc(N[C@H]2CC[C@@H](NC(=S)NCc3cccnc3)CC2)nc2ccccc12` [compound 396] it was 3 (Class 3: The value of percent of control at 10^−7 M was more than 60% or the value of IC50 was more than 200 nM.); in that of `Cc1ccc(NC(=O)NC[C@H]2CC[C@@H](Nc3nc(N(C)C)c4ccccc4n3)CC2)c([N+](=O)[O-])c1` [compound 445, N-[(cis-4-{[4-(dimethylamino)quinazolin-2-yl]amino}cyclohexyl)methyl]-N′-(4-methyl-2-nitrophenyl)urea], 2 (Class 2: The value of percent of control at 10^−7 M was from 40% to 60% or the value of IC50 was from 50 nM to 200 nM.); in that of `COc1ccc(C)cc1NC(=S)N[C@H]1CC[C@@H](Nc2nc(N(C)C)c3ccccc3n2)CC1` [compound 221, N-(cis-4-{[4-(dimethylamino)quinazolin-2-yl]amino}cyclohexyl)-N′-(2-methoxy-5-methylphenyl)thiourea], 1 (Class 1: The value of percent of control at 10^−7 M was less than 40% or the value of IC50 was less than 50 nM.).
Regarding `COc1ccc(NC(=O)NC[C@H]2CC[C@@H](Nc3nc(N(C)C)c4ccccc4n3)CC2)c(C)c1` [compound 556], the class was 2 (Class 2: The value of percent of control at 10^−7 M was from 40% to 60% or the value of IC50 was from 50 nM to 200 nM.).
Same read-out and setting: to `CCOC(=O)c1ccc(NC(=S)N[C@H]2CC[C@@H](Nc3nc(N(C)C)c4ccccc4n3)CC2)cc1` [compound 272] belongs 3 (Class 3: The value of percent of control at 10^−7 M was more than 60% or the value of IC50 was more than 200 nM.).
In the case of `Cc1cccc(C)c1NC(=O)NC[C@H]1CC[C@@H](Nc2nc(N(C)C)c3ccccc3n2)CC1` [compound 420, N-[(cis-4-{[4-(dimethylamino)quinazolin-2-yl]amino}cyclohexyl)methyl]-N′-(2,6-dimethylphenyl)urea], the class is given as 1 (Class 1: The value of percent of control at 10^−7 M was less than 40% or the value of IC50 was less than 50 nM.).
Same read-out and setting: in the case of `CN(C)c1nc(N[C@H]2CC[C@@H](CNC(=S)Nc3ccccc3)CC2)nc2ccccc12` [compound 615] it was 3 (Class 3: The value of percent of control at 10^−7 M was more than 60% or the value of IC50 was more than 200 nM.); in that of `CN(C)c1nc(N[C@H]2CC[C@@H](CNC(=S)Nc3ccc(C#N)cc3)CC2)nc2ccccc12` [compound 584], 3 (Class 3: The value of percent of control at 10^−7 M was more than 60% or the value of IC50 was more than 200 nM.).
The same measure, in the same setting: in the case of `CN(C)c1nc(N[C@H]2CC[C@@H](CNC(=O)Nc3cc([N+](=O)[O-])ccc3F)CC2)nc2ccccc12` [compound 498, N-[(cis-4-{[4-(dimethylamino)quinazolin-2-yl]amino}cyclohexyl)methyl]-N′-(2-fluoro-5-nitrophenyl)urea] it was 2 (Class 2: The value of percent of control at 10^−7 M was from 40% to 60% or the value of IC50 was from 50 nM to 200 nM.); in that of `CCc1cccc(C(C)C)c1NC(=O)NC[C@H]1CC[C@@H](Nc2nc(N(C)C)c3ccccc3n2)CC1` [compound 493, N-[(cis-4-{[4-(dimethylamino)quinazolin-2-yl]amino}cyclohexyl)methyl]-N′-(2-ethyl-6-isopropylphenyl)urea], 1 (Class 1: The value of percent of control at 10^−7 M was less than 40% or the value of IC50 was less than 50 nM.); in that of `CN(C)c1nc(N[C@H]2CC[C@@H](CNC(=O)NC(c3ccccc3)c3ccccc3)CC2)nc2ccccc12` [compound 573, N-[(cis-4-{[4-(dimethylamino)quinazolin-2-yl]amino}cyclohexyl)methyl]-N′-(diphenylmethyl)urea], 1 (Class 1: The value of percent of control at 10^−7 M was less than 40% or the value of IC50 was less than 50 nM.).
On the same count and under the same terms, in the case of `CN(C)c1nc(N[C@H]2CC[C@@H](CNC(=S)Nc3c(F)cc(Br)cc3Br)CC2)nc2ccccc12` [compound 781, N-(2,4-dibromo-6-fluorophenyl)-N′-[(cis-4-{[4-(dimethylamino)quinazolin-2-yl]amino}cyclohexyl)methyl]thiourea] it was 2 (Class 2: The value of percent of control at 10^−7 M was from 40% to 60% or the value of IC50 was from 50 nM to 200 nM.); in that of `CN(C)c1nc(N[C@H]2CC[C@@H](NC(=S)Nc3ccc(Br)cc3C(F)(F)F)CC2)nc2ccccc12` [compound 268, N-[4-bromo-2-(trifluoromethyl)phenyl]-N′-(cis-4-{[4-(dimethylamino)quinazolin-2-yl]amino}cyclohexyl)thiourea], 1 (Class 1: The value of percent of control at 10^−7 M was less than 40% or the value of IC50 was less than 50 nM.).
Regarding `COc1ccc(NC(=O)NC[C@H]2CC[C@@H](Nc3nc(N(C)C)c4ccccc4n3)CC2)cc1OC` [compound 523], the class is on record as 3 (Class 3: The value of percent of control at 10^−7 M was more than 60% or the value of IC50 was more than 200 nM.).
Consider `CN(C)c1nc(N[C@H]2CC[C@@H](CNC(=O)Nc3ccc(F)cc3F)CC2)nc2ccccc12` [compound 422, N-(2,4-difluorophenyl)-N′-[(cis-4-{[4-(dimethylamino)quinazolin-2-yl]amino}cyclohexyl)methyl]urea], for which the class is recorded as 1 (Class 1: The value of percent of control at 10^−7 M was less than 40% or the value of IC50 was less than 50 nM.).
The same measure, in the same setting: in the case of `CN(C)c1nc(N[C@H]2CC[C@@H](CNC(=O)Nc3ccccc3Oc3ccccc3)CC2)nc2ccccc12` [compound 514, N-[(cis-4-{[4-(dimethylamino)quinazolin-2-yl]amino}cyclohexyl)methyl]-N′-(2-phenoxyphenyl)urea] it was 2 (Class 2: The value of percent of control at 10^−7 M was from 40% to 60% or the value of IC50 was from 50 nM to 200 nM.).

The test is the same for the next values; noted with them: class by percent of control at 10^-7 M or by IC50; read-out: class.
With `CCCCc1ccc(NC(=S)NC[C@H]2CC[C@@H](Nc3nc(N(C)C)c4ccccc4n3)CC2)c(C)c1` [compound 805], the IC50 is > 200 nM.
For the molecule `CN(C)c1nc(N[C@H]2CC[C@@H](NC(=O)OCC(Cl)(Cl)Cl)CC2)nc2ccccc12` [compound 865], the IC50 was > 200 nM.
`CN(C)c1ccc(NC(=S)NC[C@H]2CC[C@@H](Nc3nc(N(C)C)c4ccccc4n3)CC2)cc1` [compound 806]: the IC50 was > 200 nM.
The same measure, in the same setting: to `CN(C)c1nc(N[C@H]2CC[C@@H](NC(=O)Nc3ccc(F)c(F)c3)CC2)nc2ccccc12` [compound 123, N-(3,4-difluorophenyl)-N′-(cis-4-{[4-(dimethylamino)quinazolin-2-yl]amino}cyclohexyl)urea] belongs 50 to 200 nM; to `CCOC(=O)c1cccc(NC(=O)N[C@H]2CC[C@@H](Nc3nc(N(C)C)c4ccccc4n3)CC2)c1` [compound 29, ethyl 3-({[(cis-4-{[4-(dimethylamino)quinazolin-2-yl]amino}cyclohexyl)amino]carbonyl}amino)benzoate], < 50 nM; to `CN(C)c1nc(N[C@H]2CC[C@@H](NC(=S)Nc3cccc4ccccc34)CC2)nc2ccccc12` [compound 187, N-(cis-4-{[4-(dimethylamino)quinazolin-2-yl]amino}cyclohexyl)-N′-1-naphthylthiourea], < 50 nM.
Same read-out and setting: to `CN(C)c1nc(N[C@H]2CC[C@@H](NC(=O)Nc3c(Br)cc(Br)cc3Br)CC2)nc2ccccc12` [compound 75, N-(cis-4-{[4-(dimethylamino)quinazolin-2-yl]amino}cyclohexyl)-N′-(2,4,6-tribromophenyl)urea] belongs < 50 nM; to `CN(C)c1nc(N[C@H]2CC[C@@H](NC(=O)Nc3ccccc3[N+](=O)[O-])CC2)nc2ccccc12` [compound 113, N-(cis-4-{[4-(dimethylamino)quinazolin-2-yl]amino}cyclohexyl)-N′-(2-nitrophenyl)urea], < 50 nM.

Still in this test, the particulars now being: class by percent of control at 10^−7 M or by IC50; read-out: class.
`COc1ccc(OC)c(NC(=O)NC[C@H]2CC[C@@H](Nc3nc(N(C)C)c4ccccc4n3)CC2)c1` [Example 1020, N-(2,5-dimethoxyphenyl)-N′-[(cis-4-{[4-(dimethylamino)quinazolin-2-yl]amino}cyclohexyl)methyl]urea]: the IC50 fell in the range of 50 to 200 nM.
On the same count and under the same terms, to `CN(C)c1nc(N[C@H]2CC[C@@H](CNC(=O)c3cccc(Cl)c3)C2)nc2ccccc12` [Example 1122, 3-chloro-N-[((1R,3S)-3-{[4-(dimethylamino)quinazolin-2-yl]amino}cyclopentyl)methyl]benzamide] belongs < 50 nM.

The values above are taken from US20070010671A1, “Novel quinazoline derivatives and methods of treatment related to the use thereof” (priority 2003, published 2007).
